Measured values: patent publication US20150166524A1, “CRYSTALLINE FORM OF MASITINIB” (SANDOZ AG, priority 2013, published 2015)

Columns and labels:
[1] = Behaviour on heating by TG/DTA; assay type: physicochemical; settings: lost small amounts of water
Experimental: Thermogravimetric analyses were carried out on a Mettler Toledo TGA/DSC1 STARe. The calibration standards were indium and tin. Samples were placed in an aluminium sample pan, inserted into the TG furnace and accurately weighed. The heat flow signal was stabilised for one minute at 30° C., prior to heating to 270° C. in a stream of nitrogen at a rate of 10° C./minute.
Masitinib mesylate (25 mg) was charged into a scintillation vial followed by methanol (containing small amounts of water; 1.0 mL). The suspension was then heated until the masitinib mesylate had dissolved. The masitinib mesylate solution in methanol was then allowed to slowly cool to room temperature. The crystals which formed were then harvested by filtration and analyzed by XRPD and TG/DTA.

[2] = cited from earlier work; for polymorphic conversion: DRX2: upon temperature increase, DRX3: outside dry conditions
[3] = Dynamic Vapour Sorption (DVS) hygroscopicity; assay type: physicochemical
Experimental: Dynamic Vapour Sorption (DVS) was performed using a Hiden Analytical Instruments IGAsorp Vapour Sorption Balance. Approximately 30 mg of sample was placed into a wire-mesh vapour sorption balance pan, loaded into the IGAsorp vapour sorption balance and held at 25° C.±0.1° C. The sample was subjected to a step profile from 40% RH to 90% RH at 10% increments, followed by desorption from 90% RH to 0% RH at 10% increments and a second adsoriotn cycle from 0% RH to 90% RH. The equilibrium criterion was set to 99.0% step completion within a minimum of 60 minutes and a maximum of 5 hours for each increment. The weight change during the sorption cycle was monitored, allowing for the hygroscopic nature of the sample to be determined. The data collection interval was in seconds.
The hygrosopicity of masitinib mesylate form H as obtained from example 2 was assessed by DVS. The DVS isotherm was initiated at 40% r.h. and increased to 70% r.h. The weight gain in this relative humidity interval was below 0.27% (w/w).

[4] = cited from earlier work
[5] = as described in response to the eESR

Substance: masitinib mesylate [Comparative Example]
- polymorphic conversion upon heating [1]: converted to masitinib mesylate crystal form I upon heating

Substance: masitinib mesylate [DRX2]
- polymorphic conversion [2]: slowly, but fully, converts to DRX1
- polymorphic stability [2, 5]: stable only at 25 °C

Substance: Masitinib mesylate [form H]
- hygroscopicity compared with form I ([3]; DVS): less hygroscopic than masitinib mesylate form I
- weight gain in relative humidity interval (DVS) ([3]; DVS isotherm from 40% r.h. to 70% r.h., form H from example 2): below 0.27 % (w/w)
- water absorbed (DVS) ([3]; interval of relative humidity between 40% and 70% r.h.): less than 0.5 weight %

Substance: Masitinib mesylate [crystal form I]
- hygroscopicity [2, 5]: mildly hygroscopic
- behaviour at 80% relative humidity ([4]; 80% relative humidity): remains dry
- thermodynamic stability ([4]; at temperatures below 200° C.): thermodynamically stable

Substance: masitinib mesylate [DRX3]
- polymorphic conversion [2]: quickly converts to DRX2
- polymorphic stability [2, 5]: stable under dry conditions only
